Key:
uteri = assay: Rat Uterotrophic/Antiuterotrophic Bioassay (results headed 3-Day Ovariectomized Rat Model); assay type: in vivo, rat (Sprague-Dawley); conditions: 1 μG; Example 12 experiment, control = 31.4 mg
Procedure: Rat Uterotrophic/Antiuterotrophic Bioassay
Immature Sprague-Dawley rats (female, 18 days old) were tested in groups of six. […] On day 4 the animals were sacrificed by CO2 asphyxiation and their uteri were removed and stripped of excess lipid, any fluid removed and the wet weight determined. A small section of one horn was submitted for histology and the remainder used to isolate total RNA in order to evaluate complement component 3 gene expression.

Ishikawa cells = assay: Ishikawa Cell Alkaline Phosphatase Assay; assay type: cell-based, human; conditions: for % Activation (Compound ± 1 nM 17β-estradiol) (alkaline phosphatase): 10^-6 M compound + 1 nM 17β-estradiol, 48 h (antiestrogen test); for % Activation (alkaline phosphatase): compound alone, 48 h, percent of response related to 1 nM 17β-estradiol
Procedure: Ishikawa Cell Alkaline Phosphatase Assay
(§1) Cell Maintenance and Treatment
Ishikawa cells were maintained in DMEM/F12 (50%:50%) containing phenol red+10% fetal bovine serum and the medium was supplemented with 2 mM Glutamax, 1% Pen/Strap and 1 mM sodium pyruvate. Five days prior to the beginning of each experiment (treatment of cells) the medium was changed to phenol red-free DMEM/F12+10% dextran coated charcoal stripped serum. On the day before treatment, cells were harvested using 0.5% trypsin/EDTA and plated at a density of 5×10^4 cells/well in 96-well tissue culture plates. […] Cells were treated for 48 h prior to assay. […] Sample population for at each dose was n=8.
Alkaline Phosphatase Assay
At the end of 48 h the media is aspirated and cells are washed three times with phosphate buffered saline (PBS). 50 μL of lysis buffer (0.1 M Tris-HCl, pH 9.8, 0.2% Triton X-100) is added to each well. Plates are placed at -80° C. for a minimum of 15 minutes. Plates are thawed at 37° C. followed by the addition of 150 μL of 0.1 M Tris-HCl, pH 9.8, containing 4 mM para-nitrophenylphosphate (pNPP) to each well (final concentration, 3 mM pNPP).
Absorbance and slope calculations were made using the KineticCalc Application program (Bio-Tek Instruments, Inc., Winooski, Vt.). Results are expressed as the mean +/-S.D. of the rate of enzyme reaction (slope) averaged over the linear portion of the kinetic reaction curve (optical density readings every 5 minutes for 30 minutes absorbance reading).
Various compounds were assayed for estrogenic activity by the alkaline phosphatase method and corresponding ED50 values (95% C.I.) were calculated. The four listed in the following were used as reference standards:
A description of such methods is provided by Holinka, C. F., Hata, H., Kuramoto, H. and Gurpide, E. (1986) Effects of steroid hormones and antisteroids on alkaline phosphatase activity in human endometrial cancer cells (Ishikawa Line). Cancer Research, 46:2771-2774, and by Littlefield, B. A., Gurpide, E., Markiewicz, L., McKinley, B. and by Hochberg, R. B. (1990) A simple and sensitive microtiter plate estrogen bioassay based on stimulation alkaline phosphatase in Ishikawa cells; Estrogen action of D5 adrenal steroids. Endocrinology, 6:2757-2762.

estrogen receptor [1] = biological target: T1, estrogen receptor (Homo sapiens, UniProt P03372); assay: In Vitro Estrogen Receptor Binding Assay ([3H]-17β-estradiol competition, cytosol of CHO cells overexpressing the estrogen receptor); set-up: made in house; host or cells: CHO cells overexpressing the receptor; 100,000 g cytosol
T1 sequence (P03372 1-595): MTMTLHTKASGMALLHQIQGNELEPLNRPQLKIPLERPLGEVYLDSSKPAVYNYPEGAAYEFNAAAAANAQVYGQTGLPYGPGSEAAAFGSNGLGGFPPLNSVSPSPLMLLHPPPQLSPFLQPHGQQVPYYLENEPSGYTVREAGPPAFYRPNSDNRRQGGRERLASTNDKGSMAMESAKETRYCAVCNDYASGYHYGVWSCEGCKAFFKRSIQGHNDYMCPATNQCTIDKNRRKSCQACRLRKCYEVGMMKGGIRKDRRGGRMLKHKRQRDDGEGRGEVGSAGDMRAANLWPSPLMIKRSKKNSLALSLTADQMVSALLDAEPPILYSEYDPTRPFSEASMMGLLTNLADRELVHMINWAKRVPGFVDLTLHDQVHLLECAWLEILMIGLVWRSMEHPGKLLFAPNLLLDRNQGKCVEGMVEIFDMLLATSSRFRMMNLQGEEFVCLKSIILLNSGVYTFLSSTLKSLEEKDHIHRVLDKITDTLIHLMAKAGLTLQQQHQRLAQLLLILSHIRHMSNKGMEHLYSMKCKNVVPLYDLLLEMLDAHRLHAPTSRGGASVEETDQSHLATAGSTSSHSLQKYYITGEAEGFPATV
Procedure: In Vitro Estrogen Receptor Bonding Assay
CHO cells overexpressing the estrogen receptor were grown in 150 mm^2 dishes in DMEM+10% dextran coated charcoal, stripped fetal bovine serum. The plates were washed twice with PBS and once with 10 mM Tris-HCl, pH 7.4, 1 mM EDTA. Cells were harvested by scraping the surface and then the cell suspension was placed on ice. Cells were disrupted with a hand-held motorized tissue grinder using two, 10-second bursts. […] The cytosol was then frozen and stored at -80° C. Protein concentration of the cytosol was estimated using the BCA assay with reference standard protein.
100 uG/100 uL of the receptor preparation was aliquoted per well. […] The plate was incubated at room temperature for 2.5 h. […] 200 uL of the supernatant solution was then removed for scintillation counting. Samples were counted to 2% or 10 minutes, whichever occurs first. […] Also, wells containing radioactivity but no cytosol were processed with charcoal to estimate unremovable DPM of [^3 H] […].
Counts per minute (CPM) of radioactivity were automatically converted to disintegrated per minute (DPM) by the Beckman LS 7500 Scintillation Counter using a set of quenched standards to generate a H# for each sample.
((DPM sample-DPM not removed by charcoal)/(DPM estradiol-DPM not removed by charcoal))×100%=% of estradiol binding
For the generation of IC50 curves, % binding is plotted vs compound. […] For a description of these methods, see Hulme, E. C., ed. […] Receptor-Ligand Interactions: A Practical Approach. IRL Press, New York (see especially chapter 8).

estrogen receptor [2] = biological target: T1, estrogen receptor; assay: 2X VIT ERE Transfection (luciferase) Assay in CHO cells; assay type: cell-based; set-up: expressed in transfected cells; host or cells: Chinese Hamster Ovary (CHO) cells, stably transfected; conditions: for % Activation with 1 nM 17β-estradiol (luciferase): 1 uM compound + 1 nM 17β-estradiol, 24 h (antagonism); for activation at 1 µM: CHO, 24 h
Procedure: 2X VIT ERE Transfection Assay
as §1
Chinese Hamster Ovary cells (CHO) which had been stably transfected with the human estrogen receptor were maintained in DMEM+10% fetal bovine serum (FBS). 48 h prior to treatment the growth medium was replaced with DMEM lacking phenol red +10% dextran coated charcoal stripped FBS (treatment medium). Cells were plated at a density of 5000 cells/well in 96-well plates containing 200 μL of medium/well.
Calcium Phoshate Transfection
Reporter DNA (Promega plasmid pGL2 containing two tandem copies of the vitellogenin ERE in front of the minimal thymidine kinase promoter driving the luciferase gene) was combined with the B-galactosidase expression plasmid pCH110 (Pharmacia) and carrier DNA (pTZ18U) in the following ratio:
20 uL of this mixture was added to each well of cells and remained on the cells for 16 h. […] Each treatment condition was performed on 8 wells (n=8) which were incubated for 24 h prior to the luciferase assay.
After removing the PBS, 25 uL of Promega lysis buffer was added to each well and allowed to stand at room temperature for 15 min, followed by 15 min at -80° C. and 15 min at 37° C. 20 uL of lysate was transferred to an opaque 96 well plate for luciferase activity evaluation and the remaining lysate (5 uL) was used for the B-galactosidase activity evaluation (normalize transfection). The luciferan substrate (Promega) was added in 100 uL aliquots to each well automatically by the luminometer and the light produced (relative light units) was read 10 seconds after addition.
To the remaining 5 uL of lysate 45 uL of PBS was added. Then 50 uL of Promega B-galactosidase 2× assay buffer was added, mixed well and incubated at 37° C. for 1 hour. A plate containing a standard curve (0.1 to 1.5 milliunits in triplicate) was set up for each experimental run. The plates were analyzed on a Molecular Devices spectrophotometric plate reader at 410 nm. The optical densities for the unknown were converted to milliunits of activity by mathematical extrapolation from the standard curve.
The luciferase data was generated as relative light units (RLUs) accumulated during a 10 second measurement and automatically transferred to a JMP (SAS Inc) file where background RLUs were subtracted. The B-galactosidase values were automatically imported into the file and these values were divided into the RLUs to normalize the data. The mean and standard deviations were determined from a n=8 for each treatment. […] These techniques are described by Tzukerman, M. T., Esty, A., Santiso-Mere, D., Danielian, P., Parker, M. G., Stein, R. B., Pike, J. W. and McDonnel, D. P. (1994). Human estrogen receptor transactivational capacity was determined by both cellular and promoter context and mediated by two functionally distinct intramolecular regions (see Molecular Endocrinology, 8:21-30).

Row | Compound | Estrogen Receptor Affinity (RBA) (estrogen receptor [1]) | % Activation with 1 nM 17β-estradiol (luciferase) (estrogen receptor [2]) [%] | activation at 1 µM (estrogen receptor [2]) [%] | uterine wet weight, 1 μG 17β-estradiol (uteri) [mg] | % Activation (Compound ± 1 nM 17β-estradiol) (alkaline phosphatase) (Ishikawa cells) [%] | % Activation (alkaline phosphatase) (Ishikawa cells) [%]
1 | C[C@]12CC[C@@H]3c4ccc(O)cc4CC[C@H]3[C@@H]1CC[C@@H]2O [17β-estradiol, reference compound] | – | – | – | 89.0 | – | –
2 | CCN(CC)C(=O)/C=C/c1ccc(Cn2c(-c3ccc(O)cc3)c(C)c3cc(O)ccc32)cc1 [Example 7, (E)-N,N-Diethyl-3-{4-[5-hydroxy-2-(4-hydroxy-phenyl)-3-methyl-indol-1-ylmethyl]-phenyl}-acrylamide] | 42 | 8 | 4 | – | 9 | 1
3 | Cc1c(-c2ccc(O)cc2)n(Cc2ccc(/C=C/C(=O)NC(C)(C)C)cc2)c2ccc(O)cc12 [Example 8, 1(E)-N-tert-butyl-3-{4-[5-hydroxy-2-(4-hydroxy-phenyl)-3-methyl-indol-1-ylmethyl]-phenyl}-acrylamide] | 40 | 78 | 6 | – | 22 | 10
4 | Cc1c(-c2ccc(O)cc2)n(Cc2ccc(/C=C/C(=O)N3CCCC3)cc2)c2ccc(O)cc12 [Example 9, (E)-Pyrrolidino-3-{4-[5-hydroxy-2-(4-hydroxy-phenyl)-3-methyl-indol-1-ylmethyl]-phenyl}-acrylamide] | – | 8 | 6 | – | 11 | 3
5 | Cc1c(-c2ccc(O)cc2)n(Cc2ccc(/C=C/C(=O)N(C)C)cc2)c2ccc(O)cc12 [Example 10, (E)-N,N-Dimethyl-3-{4-[5-hydroxy-2-(4-hydroxy-phenyl)-3-methyl-indol-1-ylmethyl]-phenyl}-acrylamide] | 20 | 2 | 1 | – | 19 | 6
6 | CCCCN(C)C(=O)/C=C/c1ccc(Cn2c(-c3ccc(O)cc3)c(C)c3cc(O)ccc32)cc1 [Example 12, (E)-N-Butyl. N'-methyl-3-{4-[5-hydroxy-2-(4-hydroxy-phenyl)-3-methyl-indol-1-ylmethyl]-phenyl}-acrylamide] | 114 | 24 | 13 | – | 16 | 7

Further lines, with some results ahead:

Row | Estrogen Receptor Affinity (RBA) (estrogen receptor [1]) | % Activation with 1 nM 17β-estradiol (luciferase) (estrogen receptor [2]) [%] | activation at 1 µM (estrogen receptor [2]) [%] | Compound | uterine wet weight, 1 μG 17β-estradiol (uteri) [mg] | % Activation (Compound ± 1 nM 17β-estradiol) (alkaline phosphatase) (Ishikawa cells) [%] | % Activation (alkaline phosphatase) (Ishikawa cells) [%]
7 | – | 17 | 8 | Cc1c(-c2ccc(O)cc2)n(Cc2ccc(/C=C/C(=O)N3CCOCC3)cc2)c2ccc(O)cc12 [Example 13] | – | 9 | 7
8 | 32 | 57 | 19 | Cc1c(-c2ccc(O)cc2)n(Cc2ccc(/C=C/C(N)=O)cc2)c2ccc(O)cc12 [Example 14, (E)-3-{4-[5-hydroxy-2-(4-hydroxy-phenyl)-3-methyl-indol-1-ylmethyl]-phenyl}-acrylamide] | – | 14 | 2
9 | 53 | 31 | 15 | CNC(=O)/C=C/c1ccc(Cn2c(-c3ccc(O)cc3)c(C)c3cc(O)ccc32)cc1 [Example 15, (E)-N,Methyl-3-{4-[5-hydroxy-2-(4-hydroxy-phenyl)-3-methyl-indol-1-ylmethyl]-phenyl}-acrylamide] | – | 5 | 0
